Test results from US20110305784A1, “Fractionated products obtained from gamboge resin, and medical uses of the same” (priority 2010, published 2011).
Converted amounts (≈) assume the structure as drawn.

Legend:
[1] = test system: Human umbilical venal epithelial cell (HUVEC); test: in vitro; details: HUVEC; for IC50: Homo sapiens, read-out: IC50 (50% inhibition concentration)
Source text: (§1) The in vitro anti-cancer test was primarily used to detect the effect of a candidate drug on cancer cell proliferation. The working principle involved therein is the ability of viable cells to shift alamarBlue (AbD Serotec, UK) from its originally non-fluorescent oxidized state (non-fluorescent, blue) to a reduced form (fluorescent, red) having fluorescence via metabolic reaction. According to the fluorescent data result generated by the alamarBlue reagent thus obtained, the proliferation of the viable cells and cell activity can be quantified for detection.
(§2) In the in vitro anti-cancer tests, a candidate drug was tested at 5 different concentrations of 0.01, 0.1, 1, 10, and 100 μg/ml, and six human cancer cell lines and a normal human cell line were used (see Table 10).

[2] = test system: Human breast adenocarcinoma cell MCF7; test: cells; details: for IC50: MCF7, read-out: IC50 (50% inhibition concentration); for CC50: MCF7, read-out: LC50 (50% lethal concentration)
Source text: as §1, §2

[3] = test system: Human hepatocellular carcinoma cell HepG2; test: cells; details: for IC50: HepG2, read-out: IC50 (50% inhibition concentration); for CC50: HepG2, read-out: LC50 (50% lethal concentration)
Source text: as §1, §2

[4] = test system: Human promyelocytic leukemia cell HL-60; test: cells; details: for IC50: HL-60, read-out: IC50 (50% inhibition concentration); for CC50: HL-60, read-out: LC50 (50% lethal concentration)
Source text: as §1, §2

[5] = test system: Human histocytic lymphoma cell U937; test: cells; details: for IC50: U-937, read-out: IC50 (50% inhibition concentration); for CC50: U-937, read-out: LC50 (50% lethal concentration)
Source text: as §1, §2

[6] = test system: Human lung carcinoma cell A549; test: cells; details: for IC50: A549, read-out: IC50 (50% inhibition concentration); for CC50: A549, read-out: LC50 (50% lethal concentration)
Source text: as §1, §2

[7] = test system: Human colon adenocarcinoma cell HT-29; test: cells; details: for IC50: HT-29, read-out: IC50 (50% inhibition concentration); for CC50: HT-29, read-out: LC50 (50% lethal concentration)
Source text: as §1, §2

in vitro = details: human
Source text: as §1, §2

| SMILES | LC50 (50% lethal concentration) [1] [µg/mL] | IC50 [2] [µg/mL] | CC50 [2] [µg/mL] | IC50 [3] [µg/mL] | CC50 [3] [µg/mL] | IC50 [4] [µg/mL] | CC50 [4] [µg/mL] | IC50 [5] [µg/mL] | CC50 [5] [µg/mL] | IC50 [6] [µg/mL] | CC50 [6] [µg/mL] | IC50 [7] [µg/mL] | CC50 [7] [µg/mL] | IC50 [1] [µg/mL] | CC50 (in vitro) [µg/mL] |
| --- | --- | --- | --- | --- | --- | --- | --- | --- | --- | --- | --- | --- | --- | --- | --- |
| C=C(C)C1CC[C@]2(C)C[C@H]1c1c(O)c3c(c(CC=C(C)C)c1O2)O[C@]12C(=C[C@@H]4CC1C(C)(C)O[C@]2(/C=C/C(C)C(=O)O)C4=O)C3=O (stereo partly drawn) [Gh-2508, β-gambogellic acid] | 5.4 (≈ 8.59 µM) |  |  |  |  |  |  |  |  |  |  |  |  |  |  |
| C=C(C)[C@@H]1CC[C@@]2(C)CC1c1c(O)c3c(c(CC=C(C)C)c1O2)O[C@]12C(=C[C@@H]4CC1C(C)(C)O[C@]2(C/C=C(/C)C(=O)O)C4=O)C3=O [Gh-2603-1, epigambogellic acid] |  | 2.2 (≈ 3.5 µM) | 4.2 (≈ 6.68 µM) | 1 (≈ 1.59 µM) | 3.3 (≈ 5.25 µM) | 1 (≈ 1.59 µM) | 2.9 (≈ 4.61 µM) | 1.3 (≈ 2.07 µM) | 3.1 (≈ 4.93 µM) | 0.036 (≈ 0.0573 µM) | 0.34 (≈ 0.541 µM) | 1.6 (≈ 2.54 µM) | 3.7 (≈ 5.88 µM) | 0.26 (≈ 0.414 µM) |  |
| C=C(C)C1CC[C@]2(C)C[C@H]1c1c(O)c3c(c(CC=C(C)C)c1O2)O[C@]12C(=CC4CC1C(C)(C)O[C@]2(C/C=C(/C)C(=O)O)C4=O)C3=O (stereo partly shown) [Gh-2603-2, gambogellic acid] |  | 2.2 (≈ 3.5 µM) | 4.2 (≈ 6.68 µM) | 0.65 (≈ 1.03 µM) | 3.5 (≈ 5.57 µM) | 0.93 (≈ 1.48 µM) | 2.4 (≈ 3.82 µM) | 1.5 (≈ 2.39 µM) | 3.6 (≈ 5.73 µM) | 0.2 (≈ 0.318 µM) | 0.47 (≈ 0.748 µM) | 1.4 (≈ 2.23 µM) | 3.9 (≈ 6.2 µM) | 0.14 (≈ 0.223 µM) |  |
| CC(C)=CCC[C@]1(C)C=Cc2c(O)c3c(c(CC=C(C)C)c2O1)O[C@]12C(=C[C@@H]4CC1C(C)(C)OC2(C/C=C(/C)C(=O)O)C4=O)C3=O [Gh-2605, gambogic acid] | 1.6 (≈ 2.54 µM) |  |  |  |  |  |  |  |  |  |  |  |  |  |  |
| CC(C)=CCC[C@@]1(C)C=Cc2c(O)c3c(c(CC=C(C)C)c2O1)O[C@]12C(=C[C@@H]4CC1C(C)(C)O[C@]2(C/C=C(/C)C(=O)O)C4=O)C3=O [Gh-2606, epigambogic acid] | 1.4 (≈ 2.23 µM) |  |  |  | 3 (≈ 4.77 µM) |  |  |  |  | 0.1 (≈ 0.159 µM) |  |  | 2 (≈ 3.18 µM) |  |  |
| CC(C)=CCc1c2c(c(O)c3c1O[C@@]1(C)CCC4C3C1C4(C)C)C(=O)C1=C[C@@H]3CC4C(C)(C)O[C@](C/C=C(/C)C(=O)O)(C3=O)[C@@]14O2 [Gh-2607-1A, epiformoxanthone B] | 1.5 (≈ 2.39 µM) |  |  |  |  |  |  |  |  |  |  |  |  |  |  |
| CC(C)=CCc1c2c(c(O)c3c1O[C@]1(C)CCC4[C@H]3C1C4(C)C)C(=O)C1=CC3CC4C(C)(C)O[C@](C/C=C(/C)C(=O)O)(C3=O)[C@@]14O2 [Gh-2607-B, formoxanthone B] | 1.6 (≈ 2.54 µM) | 0.1 (≈ 0.159 µM) |  |  | 4 (≈ 6.36 µM) |  |  | 0.1 (≈ 0.159 µM) |  | 0.1 (≈ 0.159 µM) |  | 0.3 (≈ 0.477 µM) | 1 (≈ 1.59 µM) | 0.07 (≈ 0.111 µM) |  |
| CC(C)=CCC/C(C)=C/Cc1c(O)c(CC=C(C)C)c2c(c1O)C(=O)C1=C[C@@H]3CC4C(C)(C)O[C@](C/C=C(\C)C(=O)O)(C3=O)[C@@]14O2 [Gh-2642, isogambogenic acid] | 11 (≈ 17.4 µM) | 3 (≈ 4.76 µM) |  |  |  | 9 (≈ 14.3 µM) |  |  |  |  |  |  |  |  |  |
| CC(C)=CCc1c2c(c(O)c3c1O[C@]14C(=C[C@@H]5CC1C(C)(C)OC4(C/C=C(/C)C(=O)O)C5=O)C3=O)C=C[C@@](C)(CCC(O)C(C)(C)O)O2 (stereo partly shown) [Gh-3261, formoxanthone J] |  |  | 2.8 (≈ 4.22 µM) |  | 2.8 (≈ 4.22 µM) |  | 7 (≈ 10.6 µM) |  | 0.31 (≈ 0.468 µM) |  | 0.5 (≈ 0.754 µM) |  | 3.9 (≈ 5.88 µM) |  | 1.4 (≈ 2.11 µM) |
| CC(C)=CCc1c2c(c(O)c3c1O[C@]14C(=C[C@@H]5CC1C(C)(C)OC4(C/C=C(/C)C(=O)O)C5=O)C3=O)C=C[C@](C)(CCC(O)C(C)(C)O)O2 (stereo partly shown) [Gh-3271, epiformoxanthone J] |  |  | 0.62 (≈ 0.935 µM) |  | 4.6 (≈ 6.94 µM) |  | 17.1 (≈ 25.8 µM) |  | 0.35 (≈ 0.528 µM) |  | 0.51 (≈ 0.769 µM) |  | 5.8 (≈ 8.75 µM) |  | 1.5 (≈ 2.26 µM) |
| CC(C)=CCC/C(C)=C/Cc1c(O)c(CC=C(C)C)c2c(c1O)C(=O)C1=C[C@@H]3CC4C(C)(C)OC(CC=C(C)C)(C3=O)[C@@]14O2 [Gh-4301, desoxygambogenin] | 1.3 (≈ 2.16 µM) |  |  |  |  |  | > 100 |  | > 100 |  |  |  |  |  |  |
